Results on one compound are retold here after paper PMC7139549, “TLD1433 Photosensitizer Inhibits Conjunctival Melanoma Cells in Zebrafish Ectopic and Orthotopic Tumour Models” (Cancers, 2020).

For assay [1], the system named is CRMM2 cells injected behind the eye (RO) of zebrafish embryos. Briefly: Zebrafish orthotopic CM tumour model, CRMM2. The class given is in vivo, Zebrafish (Danio rerio). To be noted: for PI (Fluorescence Intensity) / PI (Tumour Area) / Relative Tumour Burden as Measured by Fluorescence Intensity / Tumour Area: CRMM2, Orthotopic Model; for PI (Fluorescence Intensity) / PI (Tumour Area): 0 vs 114 J.cm^−2. The protocol:
The zebrafish ectopic conjunctival melanoma tumour model has been described previously. In this model, around 200 fluorescent CM cells are injected into the Duct of Cuvier at 2 dpf, and then disseminate through the blood circulation and grow in the head and tail. To establish the orthotopic tumour model, around 100 red, (td)Tomato fluorescent CRMM1 or CRMM2 cells were injected RO at 2 dpf into tg(Fli:GFP/Casper), endothelial reporter transgenic zebrafish with green fluorescent vasculature and examined by fluorescent microscopy at day 1 and 4 after engraftment (Figure 6A). Tumour expansion at the injection site was measured as fluorescence intensity and tumour area.
For cancer cell injection, two days post-fertilization (dpf), dechorionated zebrafish embryos were anaesthetized with 0.003% tricaine (Sigma) and plated on a 10 cm Petri dish covered with 1.5% of solidified agarose. CRMM1 and CRMM2 cells were suspended in PBS containing 2% polyvinylpyrrolidone (PVP; Sigma-Aldrich) with a concentration of 50,000 cells/µL and loaded into borosilicate glass capillary needles (1 mm O.D. × 0.78 mm I.D.; Harvard Apparatus). In the ectopic model, 200 (td)Tomato fluorescent CM cells were injected into the Duct of Cuvier or at 2 dpf, which led to dissemination through the blood circulation and outgrowth in the head and tail. In orthotopic tumour model, 100 (td)Tomato fluorescent CRMM1 or CRMM2 cells were injected RO in 2 dpf embryos using a Pneumatic Picopump and a manipulator (WPI). After injection, the embryos were incubated in a 34 °C incubator. Images were acquired at 1-, 2- and 4-days post injection (dpi) with a Leica M165 FC stereo fluorescence microscope. Tumor growth was quantified by calculating the total fluorescence intensity and area with the ZF4 pixel counting program (Leiden). Each experiment was performed at least 3 times with a group size of >30 embryos.
Fluorescent CRMM1 and CRMM2 cells were injected at 2 dpf into the Duct of Cuvier (ectopic model) and behind the eye (orthotopic model) and TLD1433 was delivered by WA, IV and RO administration with or without a light treatment as described in 4.8. For the WA administration, the 4.6 nM TLD1433 solution was added to the tumour cells injected zebrafish at 2.5, 3.5, 4.5, 5.5 dpf and maintained for 12 h. At 3, 4, 5, 6 dpf, the fish water was refreshed, and after 1 h, embryos were exposed to green light for 90 min (21 mW/cm^2, 114 J/cm^2, 520 nm). For the IV and RO administration, 1 nL of 2.3 mM TLD1433 solution was injected via the dorsal vein or the RO site at 3, 4, 5, 6 dpf. After 1 h interval, the embryos were exposed to green light for 90 min (21 mW/cm^2, 114 J/cm^2, 520 nm). After treatment, the embryos images were acquired with a Leica M165 FC stereo fluorescence microscope. Tumor growth was quantified by calculating the total fluorescence intensity and area with the ZF4 pixel counting program (Leiden). Each experiment was performed at least 3 times with a group size of >30 embryos.

Assay [2] has as its system CRMM2 cells. Put plainly: Annexin-V-FITC / Propidium Iodide FACS, CRMM2. The class given is cell-based, Human. The source says: Depending on the nature and intracellular localization of a PS, the light dose, and the cell type, PDT is known to provoke either necrosis, apoptosis, or autophagy. In order to investigate the death mechanism induced by green light-activated TLD1433 in CRMM1 and CRMM2 cells, the cells were stained with Annexin V and propidium iodide, and further analysed by fluorescence-activated cell sorting (FACS).
Figure 3 Green light irradiation of TLD1433 induces apoptosis and necrosis in CRMM1 and CRMM2 cells. (A) CRMM1 and (C) CRMM2 were stained with Annexin-V-FITC and Propidium Iodide. The percentages of live, early apoptotic, later apoptotic and necrotic cells in CRMM1 (B) and CRMM2 (D) were counted by FACS. Results are presented as means ± SD from three independent experiments. […]

The mark [3] stands for this setting: Intravenous (1 nL of 2.3 mM), Light Dose 0 J.cm^−2, vs control dark group (100%).
Setting [4] is: Intravenous (1 nL of 2.3 mM), Light Dose 114 J.cm^−2, vs control dark group (100%).
The mark [5] stands for this setting: Water (4.6 nM), Light dose 0 J.cm^−2, vs control dark group (100%).
Setting [6] is: Water (4.6 nM), Light dose 114 J.cm^−2, vs control dark group (100%).
Setting [7] is: CRMM2, orthotopic model, RO 2.3 mM, green light 114 J.cm^−2.

SMILES strings stand for the structures.

Regarding `Cc1ccnc(-c2cc(C)ccn2)c1.Cc1ccnc(-c2cc(C)ccn2)c1.[Cl-].[Cl-].[Ru+2].c1csc(-c2ccc(-c3ccc(-c4nc5c6cccnc6c6ncccc6c5[nH]4)s3)s2)c1` [TLD1433], the “PI (Fluorescence Intensity)” value in assay [1] (Intravenous (1 nL of 2.3 mM)) came out at 1.0; in assay [1] (Retro-orbital (1 nL of 2.3 mM)), 2.2; in assay [1] (Water (4.6 nM)) it was 0.92. Moreover, the “PI (Tumour Area)” value in assay [1] (Intravenous (1 nL of 2.3 mM)) worked out at 1.1; in assay [1] (Retro orbital (1 nL of 2.3 mM)), 3.4; in assay [1] (Water (4.6 nM)), 1.1. Besides, the “Relative Tumour Burden as Measured by Fluorescence Intensity” value in assay [1] (setting [3]) was 98%; in assay [1] (setting [4]), 95%; in assay [1] (Retro-orbital (1 nL of 2.3 mM), Light Dose 0 J.cm^−2, vs control dark group (100%)), 100%; in assay [1] (Retro-orbital (1 nL of 2.3 mM), Light Dose 114 J.cm^−2, vs control dark group (100%)), 45%; in assay [1] (setting [5]) it was 96%; in assay [1] (setting [6]), 104%. Moreover, the “Tumour Area” value amounted to 97% in assay [1] (setting [3]); 93% in assay [1] (setting [4]); 99% in assay [1] (Retro orbital (1 nL of 2.3 mM), Light dose 0 J.cm^−2, vs control dark group (100%)); 29% in assay [1] (Retro orbital (1 nL of 2.3 mM), Light dose 114 J.cm^−2, vs control dark group (100%)); 104% in assay [1] (setting [5]); 95% in assay [1] (setting [6]). This compound yielded a diminished fluorescence intensity in assay [1] (setting [7]) of 55%. The diminished tumour area in assay [1] (setting [7]) came out at 71%. The “effect on tumour burden (in words)” value in assay [1] (CRMM2, orthotopic model, WA at the MTD (4.6 nM), light 114 J.cm^−2) is recorded as “did not inhibit tumour burden”. Further, the “cell fate by FACS (in words)” value in assay [2] (CRMM2, dark TLD1433 group) is “most cells were found alive”; in assay [2] (CRMM2, light-activated TLD1433 group), “about half of the cells were found dead”.
